ChEMBL document CHEMBL4049411, “Rational Design, Synthesis, and Biological Evaluation of Heterocyclic Quinolones Targeting the Respiratory Chain of Mycobacterium tuberculosis” (J Med Chem, 2017)
In brackets after ≈: the same amount, converted by molar mass.

Tests used:
[1] = Lipophilicity, logD of compound at pH 7.4; conditions: buffer
[2] = Intrinsic clearance in human microsomes; assay type: ADME, Microsome; conditions: read-out: CLH
[3] = (§1) Inhibition of replicating Mycobacterium tuberculosis H37Rv NDH assessed as cell growth inhibition after 7 days by MABA method; conditions: 168 h
[4] = Aqueous solubility of compound; assay type: physicochemical; conditions: buffer
[5] = Intrinsic clearance in rat hepatocytes assessed per million cells; assay type: ADME, cell-based, Hepatocyte; conditions: read-out: CLH
[6] = Protein binding in human plasma at 1 uM after 18 hrs by equilibrium dialysis; assay type: ADME, cell-free; conditions: read-out: PPB (converted)
[7] = Solubility of compound at pH 7.4; assay type: physicochemical; conditions: buffer
[8] = Half life in human plasma at 1 uM measured up to 3 hrs by LC-MS/MS analysis; assay type: ADME, cell-free
[9] = Solubility of compound at pH 1; assay type: physicochemical; conditions: buffer
[10] = system: Mycobacterium tuberculosis H37Rv; test: as §1
[11] = Metabolic stability in human liver microsomes assessed as half life for metabolic turnover at 0.1 to 10 uM preincubated for 60 mins in presence of NADPH measured up to 60 mins by mass spectroscopic analysis; assay type: ADME, microsome
[12] = Metabolic stability in rat liver microsomes assessed as half life for metabolic turnover at 0.1 to 10 uM preincubated for 60 mins in presence of NADPH measured up to 60 mins by mass spectroscopic analysis; assay type: ADME, microsome
[13] = Half life in rat plasma at 1 uM measured up to 3 hrs by LC-MS/MS analysis; assay type: ADME, cell-free
[14] = Apparent permeability across apical to basolateral side in human Caco2 cells at 5 uM measured up to 180 mins by LC-MS/MS analysis; assay type: ADME, cell-based; conditions: Caco-2
[15] = Metabolic stability in mouse liver microsomes assessed as half life for metabolic turnover at 0.1 to 10 uM preincubated for 60 mins in presence of NADPH measured up to 60 mins by mass spectroscopic analysis; assay type: ADME, microsome
[16] = system: HepG2; test: Cytotoxicity against human HepG2 cells after 24 hrs in presence of glucose by MTT assay; assay type: cell-based; conditions: hepg2, 24 h
[17] = Solubility of compound in Middlebrook 7H9 broth media containing 10% albumin-dextrose-catalase solution; assay type: physicochemical
[18] = Drug level in Sprague-Dawley rat urine treated with 2-(4-(3,3-Difluoropyrrolidin-1-yl)phenyl)-5,7-difluoro-3-methylquinolin-4-yl acetate at 50 mg/kg, po via gavage up to 9 hrs by HPLC analysis; assay type: ADME, organism-based; conditions: in vivo
[19] = Retention time of compound by HPLC anlaysis
[20] = Drug level in Sprague-Dawley rat bile treated with 2-(4-(3,3-Difluoropyrrolidin-1-yl)phenyl)-5,7-difluoro-3-methylquinolin-4-yl acetate at 50 mg/kg, po via gavage up to 9 hrs by HPLC analysis; assay type: ADME, organism-based; conditions: in vivo
[21] = Inhibition of Mycobacterium tuberculosis NDH by HTS-based assay
[22] = system: Mycobacterium tuberculosis; test: Growth inhibition of replicating Mycobacterium tuberculosis H37Rv at 5 uM after 7 days by MABA method relative to control; assay type: functional; conditions: 168 h, read-out: GI

Row | SMILES | IC50 [3] | fraction unbound at 18 h, 1 µM [6] | IC90 [10] | half-life at up to 10 µM [11] | half-life at up to 10 µM [12] | half-life at up to 10 µM [15] | other results
1 | Cc1c(-c2ccc(N3CCC[C@@H](C)C3)cc2)[nH]c2cc(F)cc(F)c2c1=O | 0.47 µM | 0.005 |  |  |  |  | logD [1]: 4.7; microsomal CLint [2]: > 300 µL/min/mg; solubility [4]: < 0.5 µM; hepatocyte CLint [5]: 183 µL/min/1e6 cells
2 | Cc1c(-c2ccc(-n3cccc3)cc2)[nH]c2cc(F)cc(F)c2c1=O | 0.432 to 0.44 µM | 0.039 | 0.69 µM | 10.2 min | 30.1 min | 20.7 min | solubility [7]: 3.6 µg/mL (≈ 10.7 µM); half-life at 1 µM [8]: > 180 min; solubility [9]: 5.1 µg/mL (≈ 15.2 µM); half-life at 1 µM [13]: > 180 min; Papp A→B at 3 h, 5 µM [14]: 31 ×10⁻⁶ cm/s; Activity [16]: 141 µM; solubility [17]: 61 µg/mL (≈ 181 µM)
3 | Cc1c(-c2ccc(N3CC[C@H](F)C3)cc2)[nH]c2cc(F)cc(F)c2c1=O | 1.8 µM | 0.0103 to 0.014 |  |  |  |  | solubility [7]: < 1 µg/mL; half-life at 1 µM [8]: > 180 min; logD [1]: 3.6; solubility [9]: < 1 µg/mL; microsomal CLint [2]: 197 µL/min/mg; solubility [4]: 1 µM (≈ 0.358 µg/mL); hepatocyte CLint [5]: 150 µL/min/1e6 cells; half-life at 1 µM [13]: > 180 min; Papp A→B at 3 h, 5 µM [14]: 15.5 ×10⁻⁶ cm/s; solubility [17]: 2.5 µg/mL (≈ 6.98 µM)
4 | Cc1c(-c2ccc(N3CC[C@@H](F)C3)cc2)[nH]c2cc(F)cc(F)c2c1=O | 0.23 to 0.231 µM | 0.009 | 0.5 µM | 10.2 min | 10.6 min | 4.4 min | logD [1]: 3.8; microsomal CLint [2]: 175 µL/min/mg; solubility [4]: 0.9 µM (≈ 0.323 µg/mL); hepatocyte CLint [5]: 118 µL/min/1e6 cells; Activity [16]: 150.6 µM
5 | Cc1c(-c2ccc(N3CCC(F)CC3)cc2)[nH]c2cc(F)cc(F)c2c1=O | 0.94 to 0.95 µM |  | 1.83 µM | 5.7 min | 8.4 min | 4.4 min | Activity [16]: 102.2 µM
6 | Cc1c(-c2ccc(N3CCCC(F)C3)cc2)[nH]c2cc(F)cc(F)c2c1=O (configuration not stated) | 0.3 to 0.31 µM | 0.0155 | 0.56 µM | 7.8 min | 10.1 min | 6.8 min | solubility [7]: < 1 µg/mL; half-life at 1 µM [8]: > 180 min; solubility [9]: > 150 µg/mL; half-life at 1 µM [13]: > 180 min; Papp A→B at 3 h, 5 µM [14]: 22.9 ×10⁻⁶ cm/s; Activity [16]: 188.1 µM; solubility [17]: 10 µg/mL (≈ 26.9 µM)
7 | Cc1c(-c2ccc(N3CCC[C@@H]3CO)cc2)[nH]c2cc(F)cc(F)c2c1=O | 0.32 µM | 0.045 |  |  |  |  | logD [1]: > 3.4; microsomal CLint [2]: > 300 µL/min/mg; solubility [4]: 4 µM (≈ 1.48 µg/mL); hepatocyte CLint [5]: 36.5 µL/min/1e6 cells
8 | Cc1c(-c2ccc(N3CCCC(C)C3)cc2)[nH]c2cc(F)cc(F)c2c1=O (configuration not stated) | 0.367 to 0.37 µM |  | 0.63 µM | 7.9 min | 10.8 min | 22.3 min | Activity [16]: > 100 µM
9 | Cc1c(-c2ccc(N3CCC[C@H](C)C3)cc2)[nH]c2cc(F)cc(F)c2c1=O | 0.4 to 0.47 µM | 0.007 | 0.66 µM | 8.54 min | 5.72 min | 7.65 min | logD [1]: > 3.2; microsomal CLint [2]: > 300 µL/min/mg; solubility [4]: < 0.3 µM; hepatocyte CLint [5]: 91.2 µL/min/1e6 cells; Activity [16]: 85.54 µM
10 | OCc1c(-c2ccc(N3CC(O)C(F)(F)C3)cc2)nc2cc(F)cc(F)c2c1O (configuration not stated) |  |  |  |  |  |  | Drug metabolism [18]: Metabolite_Detected; Retention time [19]: 8.6 min; Drug metabolism [20]: Metabolite_Detected
11 | Cc1c(-c2ccc(N3CCCCC3)cc2)[nH]c2ccccc2c1=O | 1.5 µM |  |  |  |  |  | IC50 [21]: 1.5 µM; inhibition of growth at 5 µM [22]: > 50%
12 | Cc1c(-c2ccc(N3CCCCCC3)cc2)[nH]c2cc(F)cc(F)c2c1=O | 0.49 µM | 0.006 |  |  |  |  | logD [1]: 4.8; microsomal CLint [2]: > 300 µL/min/mg; solubility [4]: < 0.1 µM; hepatocyte CLint [5]: 243 µL/min/1e6 cells
13 | COc1cc2[nH]c(-c3ccc(N4CCCCC4)cc3)c(C)c(=O)c2cc1F | 0.52 µM | 0.012 |  |  |  |  | logD [1]: 3.9; microsomal CLint [2]: > 300 µL/min/mg; solubility [4]: 2 µM (≈ 0.733 µg/mL); hepatocyte CLint [5]: 231 µL/min/1e6 cells
14 | Cc1c(-c2ccc(N3CCC(C)CC3)cc2)[nH]c2cc(F)cc(F)c2c1=O | 0.61 to 0.611 µM |  | 1.93 µM | < 10 min | < 10 min | < 10 min | Activity [16]: > 100 µM
15 | Cc1c(-c2ccc(N3CCCCC3)cc2)[nH]c2cc(F)cc(F)c2c1=O | 0.27 µM |  | 0.78 µM | 7.31 min | 8.3 min | 8.27 min | Activity [16]: > 100 µM
16 | Cc1c(-c2ccc(N3CCC[C@@H]3C(=O)N3CCC(F)CC3)cc2)[nH]c2cc(F)cc(F)c2c1=O | > 10 µM |  |  |  |  |  | 

Row | SMILES | IC50 [3] | fraction unbound at 18 h, 1 µM [6] | IC90 [10] | half-life at up to 10 µM [11] | half-life at up to 10 µM [12] | half-life at up to 10 µM [15] | other results
17 | Cc1c(-c2ccc(N3CCCCC3)cc2)[nH]c2cc(F)ccc2c1=O | > 10 µM |  |  |  |  |  | 
18 | COc1cc2[nH]c(-c3ccc(-n4cc(F)c(F)c4)cc3)c(C)c(=O)c2cc1Cl | > 10 µM |  |  |  |  |  | 
19 | Cc1c(-c2ccc(N3CCC[C@H]3CO)cc2)[nH]c2cc(F)cc(F)c2c1=O | 1.59 µM | 0.045 |  |  |  |  | logD [1]: > 3.4; microsomal CLint [2]: > 300 µL/min/mg; solubility [4]: 4 µM (≈ 1.48 µg/mL); hepatocyte CLint [5]: 36.5 µL/min/1e6 cells
20 | Cc1c(-c2ccc(N3CCC(C(F)(F)F)CC3)cc2)[nH]c2cc(F)cc(F)c2c1=O | > 10 µM |  |  |  |  |  | 
21 | Cc1c(-c2ccc(-n3cc(F)c(F)c3)cc2)[nH]c2cc(F)cc(F)c2c1=O | > 10 µM |  | > 10 µM | ≥ 60 min | ≥ 60 min | ≥ 60 min | 
22 | O=c1c(Br)c(-c2ccc(N3CCC(F)CC3)cc2)[nH]c2ccccc12 | > 10 µM |  |  |  |  |  | 
23 | Cc1c(-c2ccc(N3CCCC(F)(F)C3)cc2)[nH]c2cc(F)cc(F)c2c1=O | 0.36 to 0.361 µM |  | 0.83 µM | 17.4 min | 13.7 min | 16.2 min | 
24 | O=c1c(Cl)c(-c2ccc(N3CCC(F)CC3)cc2)[nH]c2ccccc12 | > 10 µM |  |  |  |  |  | 
25 | COc1ccc2c(=O)c(C)c(-c3ccc(-n4cc(F)c(F)c4)cc3)[nH]c2c1 | > 10 µM |  |  |  |  |  | 
26 | Cc1c(-c2ccc(N3CC(O)C(F)(F)C3)cc2)nc2cc(F)cc(F)c2c1O (configuration not stated) |  |  |  |  |  |  | Drug metabolism [18]: Metabolite_Detected; Retention time [19]: 10.1 min; Drug metabolism [20]: Metabolite_Detected
27 | Cc1c(-c2ccc(N3CCC(Cc4ccccc4)CC3)cc2)[nH]c2ccccc2c1=O | > 10 µM |  |  |  |  |  | 
28 | Cc1c(-c2ccc(N3CCC4(CC3)CC4)cc2)[nH]c2cc(F)cc(F)c2c1=O | > 10 µM |  |  |  |  |  | 
29 | COc1cc(OC)c2c(=O)c(C)c(-c3ccc(N4CCCCC4)cc3)[nH]c2c1 | > 10 µM |  |  |  |  |  | 
30 | COc1ccc2c(=O)c(C)c(-c3ccc(N4CCCCC4)cc3)[nH]c2c1 | 0.73 µM |  |  |  |  |  | IC50 [21]: 0.73 µM; inhibition of growth at 5 µM [22]: > 50%
31 | COc1ccc2c(=O)c(Cl)c(-c3ccc(N4CCCCC4)cc3)[nH]c2c1 | 2.82 µM | 0.012 |  |  |  |  | logD [1]: 3.6; microsomal CLint [2]: > 300 µL/min/mg; solubility [4]: 0.5 µM (≈ 0.184 µg/mL); hepatocyte CLint [5]: 48.9 µL/min/1e6 cells
